Read-outs that look alike come from different tables or passages of the source.
Experiments:
[1] = target: T1, purified recombinant HIV RT (Human immunodeficiency virus type 1 group M subtype B, UniProt P04585); test: Purified RT assay, cell-free Quan-T-RT system (scintillation proximity); type: biochemical
T1 construct: purified recombinant HIV RT; purchased Amersham, Arlington Heights, Ill; (Quan-T-RT system)
Description: The synthesized compounds were tested for RT inhibitory activity (IC50 [rRT]) against purified recombinant HIV RT using the cell-free Quan-T-RT system (Amersham, Arlington Heights, Ill.), which utilizes the scintillation proximity assay principle as decribed in Bosworth, et al., 1989, Nature 341:167-168. In the assay, a DNA/RNA template is bound to SPA beads via a biotin/strepavidin linkage. The primer DNA is a 16-mer oligo(T) which has been annealed to a poly(A) template. The primer/template is bound to a strepavidin-coated SPA bead.
^3 H-TTP is incorporated into the primer by reverse transcription. In brief, ^3 H-TTP, at a final concentration of 0.5 μCi/sample, was diluted in RT assay buffer (49.5 mM Tris-Cl, pH 8.0, 80 mM KCl, 10 Mm MgCl2, 10 mM DTT, 2.5 mM EGTA, 0.05% Nonidet-P-40), and added to annealed DNA/RNA bound to SPA beads. The compound being tested was added to the reaction mixture at 0.001 μM-100 μM concentrations. […] The reaction was stopped by addition of 0.2 ml of 120 mM EDTA. The samples were counted in an open window using a Beckman LS 7600 instrument and IC50 values were calculated by comparing the measurements to untreated samples.

[2] = test system: HIV-1 strain HTLVIIIB; test: Inhibition of replication of HIV-1 strain HTLVIIIB in PBMC (p24 antigen EIA); type: cell-based
Description: (§1) In addition, the anti-HIV activity of the compounds was measured by determining their ability to inhibit the replication of the HIV-1 strains HTLVIIIB, RT-MDR, A17, and A17 variant in peripheral blood mononuclear cells (PBMC) from healthy volunteer donors, using the method described in Uckun et.al., 1998, Antimicrobial Agents and Chemotherapy 42:383.
(§2) Normal human peripheral blood mononuclear cells (PBMNC) from HIV-negative donors were cultured 72 hours in RPMI 1640 supplemented with 20% (v/v) heat-inactivated fetal bovine serum (FBS), 3% interleukin-2,2 mM L-glutairine, 25 mM HEPES, 2 μL, NAHCO, […] gentamicin, and 4 Ag/mL phytohemagglutinin prior to exposure to HIV-1 or other HIV strain. The cells were then infected with virus at a multiplicity of infection (MOI) of 0.1 during a one-hour adsorption period at 37° C. in a humidified 5% CO2 atmosphere. Subsequently, cells were cultured in 96-well microplates (100 μL/well; 2×10^6 cells/mL, triplicate wells) in the presence of various inhibitor concentrations. Aliquots of culture supernatants were removed from the wells on the 7 th day after infection for p24 antigen p24 enzyme immunoassays (EIA), as previously described in Erice et al., 1993, Antimicrob. Ag. Chemotherapy 37:385-838. The applied p24 EIA was the unmodified kinetic assay commercially available from Coulter Corporation/Immunotech, Inc. (Westbrook, Me.).
(§3) Percent inhibition of viral replication was calculated by comparing the p24 values from the test substance-treated infected cells with p24 values from untreated infected cells (i.e, virus controls). […]

[3] = Microculture Tetrazolium Assay (MTA), cytotoxicity; type: cell-based
Description: A Microculture Tetrazolium Assay (MTA), using 2,3-bis(2-methoxy-4-nitro-5-sulfophenyl)-5-[(phenylamino)-carbonyl]-2H-tetrazolium hydroxide (XTT), was performed to evaluate the cytotoxicity of the compounds, using the methods described, for example, in Uckun et.al., 1998, Antimicrobial Agents and Chemotherapy 42:383; and Mao et.al., 1998, Bioorg. Med. Chem. Lett. 8:2213.

[4] = test system: HIV-1 strain A17 (Y181C); test: microbe, parasite or virus in culture; type: cell-based; conditions: for IC50: read-out: IC50 A17 (Y181C)
Description: as §1, §2, §3

[5] = test system: HIV-1 strain RT-MDR (V106A); test: microbe, parasite or virus in culture; type: cell-based; conditions: for IC50: read-out: IC50 RT-MDR (V106A); for effectiveness against RT-MDR versus HTLVIIIB: more effective against RT-MDR than against HTLVIIIB
Description: as §1, §2
(§4) Percent inhibition of viral replication was calculated by comparing the p24 values from the test substance-treated infected cells with p24 values from untreated infected cells (i.e, virus controls).
(§5) RT-MDR was obtained through the AIDS Research and Reference Reagent Program, from Dr. Bendan Larder, and is described in Larder et al., 1993, Nature, 365, 451-453.

[6] = test system: HIV-1 strain A17 variant (Y181C, K103N); test: microbe, parasite or virus in culture; type: cell-based
Description: as §1, §2, §4, §5

[7] = IC50 rRT, Table 1 and text; recombinant HIV RT
[8] = Table 1 and text; recombinant HIV RT; read-out: IC90 rRT
[9] = Human immunodeficiency virus 1, IIIB, PBMC, read-out: IC50 HTLV IIIB
[10] = Human immunodeficiency virus 1, PBMC
[11] = Human immunodeficiency virus 1, PBMC, read-out: IC50 A17 Varient (Y181C, K103N)
[12] = inhibition of p24 antigen production in PBMC

S=C(NCCN1CCOCC1)Nc1ccc(Br)cn1 [HI-276, N-[2-(5-Bromopyridinyl)]-N'-[2-(4-Morpholinoethyl)]thiourea]
IC50 [1, 7]: > 100 µM
IC90 [1, 8]: > 100 µM

S=C(NCCc1cnc[nH]1)Nc1ccc(Br)cn1 [HI-436, N-[2-(5-Bromopyridinyl)]-N'-[2-(2-Imidazolylethyl)]thiourea]
IC50 [1, 7]: > 100 µM
IC90 [1, 8]: > 100 µM

S=C(NCCc1c[nH]c2ccccc12)Nc1ccc(Br)cn1 [HI-442, N-[2-(5-Bromopyridinyl)]-N'-[2-(3-Indolylethyl)]thiourea]
IC50 [1, 7]: 0.9 µM
IC90 [1, 8]: > 100 µM

S=C(NCCc1cccs1)Nc1ccc(Br)cn1 [HI-443, N-[2-(5-Bromopyridinyl)]-N'-[2-(2-Thiophenylethyl)]thiourea]
IC50 [2, 9]: 0.03 µM
IC50 ([2]; Human immunodeficiency virus 1, PBMC, read-out: average IC50, HTLVIIIB replication): 0.03 µM
IC50 HTLVIIIB relative to HI-172 ([2]; times higher than IC50 of HI-172): 30 times
IC50 HTLVIIIB relative to trovirdine ([2]; times higher than IC50 of trovirdine): 5 times
CC50 ([3]; XTT cytotoxicity, read-out: CC50 MTA): > 100 µM
IC50 [4, 10]: 0.048 µM
potency against A17 relative to HI-172 ([4]; more potent than HI-172): 2083 times
potency against A17 relative to HI-240 ([4]; more potent than HI-240): 4.2 times
potency against A17 relative to delavirdine ([4]; more potent than delavirdine): 1042 times
potency against A17 relative to nevirapine ([4]; more potent than nevirapine): 2083 times
potency against A17 relative to trovirdine ([4]; more potent than trovirdine): 10 times
IC50 [1, 7]: 0.8 µM
IC50 ([1]; IC50 rRT, Table 2; recombinant HIV RT): 5.3 µM
IC90 [1, 8]: 15 µM
IC90 ([1]; read-out: IC90 rRT; Table 1 and text; recombinant HIV RT): 12 µM
inhibited recombinant RT in vitro ([1]; recombinant RT in vitro): more than 90%
IC50 [5, 10]: 0.004 µM
effectiveness against RT-MDR versus HTLVIIIB [5]: ten
effectiveness against RT-MDR versus HTLVIIIB ([5]; 10080 min): 10 times
potency against RT-MDR relative to AZT ([5]; more potent than AZT): 50 times
potency against RT-MDR relative to HI-172 ([5]; more potent than HI-172): 25,000 times
potency against RT-MDR relative to HI-240 ([5]; more potent than HI-240): 1.25 times
potency against RT-MDR relative to MKC-442 ([5]; more potent than MKC-442): 75 times
potency against RT-MDR relative to delavirdine ([5]; more potent than delavirdine): 100 times
potency against RT-MDR relative to nevirapine ([5]; more potent than nevirapine): 1250 times
potency against RT-MDR relative to trovirdine ([5]; more potent than trovirdine): 5 times
IC50 ([6]; Human immunodeficiency virus 1, PBMC, read-out: IC50, A17 variant replication): 3.26 µM
IC50 [6, 11]: 3.26 µM
potency against A17 variant versus HTLVIIIB ([6]; fold lower potency than HTLVIIIB, 10080 min): 100 fold

S=C(NCc1ccco1)Nc1ccc(Br)cn1 [HI-503, N-[2-(5-Bromopyridinyl)]-N'-[2-(2-Furylmethyl)]thiourea]
IC50 [1, 7]: 1.2 µM
IC90 [1, 8]: > 100 µM

CCOCn1c(Cc2ccccc2)c(C(C)C)c(=O)[nH]c1=O [MKC-442, reference compound]
CC50 [3]: > 100 µM
IC50 [5, 10]: 0.3 µM

Cc1ccnc2c1NC(=O)c1cccnc1N2C1CC1 [Nevirapine, reference compound]
IC50 ([2]; Human immunodeficiency virus 1, IIIB, inhibition of p24 antigen production in PBMC, read-out: IC50 HTLV IIIB): 0.034 µM
IC50 [4, 12]: > 100 µM
IC50 [5, 12]: 5 µM
IC50 ([6]; inhibition of p24 antigen production in PBMC, read-out: IC50 A17 Varient (Y181C, K103N)): > 100 µM

S=C(NCCc1ccccn1)Nc1ccc(Br)cn1 [Trovirdine, reference compound]
IC50 [2, 9]: 0.007 µM
CC50 [3]: > 100 µM
IC50 [4, 10]: 0.5 µM
IC90 [1, 8]: 12 µM
inhibited recombinant RT in vitro ([1]; recombinant RT in vitro): more than 90%
IC50 [5, 10]: 0.02 µM
IC50 [6, 11]: > 100 µM
